In US20120149662A1, “Heterocyclic Compounds as Janus Kinase Inhibitors” (BioCryst Pharmaceuticals, Inc., priority 2009, published 2012):

Target: JAK3 (JH1domain-catalytic) kinase and other members of the JAK family
Assay: Test A: IC50 determination against JAK family kinases (Fabian et al. 2005 / Karaman et al. 2008 assay)
Assay type: binding
Conditions: 11 point dose response curves in triplicate; JAK family member not given; read-out: Activity (IC50) for JAK Family of Enzymes
Protocol: The ability of a compound of the invention to bind to JAK3 may be determined using pharmacological models which are well known to the art, or using Test A described below.
Inhibition constants (IC50s) were determined against JAK3 (JH1domain-catalytic) kinase and other members of the JAK family. Assays were performed as described in Fabian et al. (2005) Nature Biotechnology, vol. 23, p. 329 and in Karaman et al. (2008) Nature Biotechnology, vol. 26, p. 127 Inhibition constants were determined using 11 point dose response curves which were performed in triplicate. Table 1 shown below lists compounds of the invention and their respective IC50 values.

Structure (SMILES) | IC50
c1cc2c(-c3cn[nH]c3)cnnc2[nH]1 [Compound 31m, 4-(1H-pyrazol-4-yl)-7H-pyrrolo[2,3-c]pyridazine] | > 10 µM
CCOC(C)n1cc(-c2cnnc3[nH]ccc23)cn1 (stereo not drawn) [Compound 32c, 4-(1-(1-ethoxyethyl)-1H-pyrazol-4-yl)-7H-pyrrolo[2,3-c]pyridazine] | > 10 µM
N#CCC(C1CCCC1)n1cc(-c2cnnc3[nH]ccc23)cn1 (stereo not drawn) [Compound 34j, 3-(4-(7H-pyrrolo[2,3-c]pyridazin-4-yl)-1H-pyrazol-1-yl)-3-cyclopentylpropanenitrile] | < 5 µM
CC(C)(C)C(=O)OCn1ccc2c(-c3cn[nH]c3)cnnc21 [Compound 43a, (4-(1H-pyrazol-4-yl)-7H-pyrrolo[2,3-c]pyridazin-7-yl)methyl pivalate] | > 10 µM
N#CC[C@H](C1CCCC1)n1cc(-c2cnnc3[nH]ccc23)cn1 [Compound 43g, (R)-3-(4-(7H-pyrrolo[2,3-c]pyridazin-4-yl)-1H-pyrazol-1-yl)-3-cyclopentylpropanenitrile] | < 5 µM
N#CC[C@@H](C1CCCC1)n1cc(-c2cnnc3[nH]ccc23)cn1 [Compound 44d, (S)-3-(4-(7H-pyrrolo[2,3-c]pyridazin-4-yl)-1H-pyrazol-1-yl)-3-cyclopentyl propanenitrile] | < 5 µM
CC(C)(C)OC(=O)N1CC(CC#N)(n2cc(-c3cnnc4[nH]ccc34)cn2)C1 [Compound 45d, tert-butyl 3-(4-(7H-pyrrolo[2,3-c]pyridazin-4-yl)-1H-pyrazol-1-yl)-3-(cyanomethyl)azetidine-1-carboxylate] | > 10 µM
N#CCC1(n2cc(-c3cnnc4[nH]ccc34)cn2)COC1 [Compound 46c, 2-(3-(4-(7H-pyrrolo[2,3-c]pyridazin-4-yl)-1H-pyrazol-1-yl)oxetan-3-yl)acetonitrile] | < 10 µM
N#CCC(C1CCCCC1)n1cc(-c2cnnc3[nH]ccc23)cn1 (stereo not drawn) [Compound 47d, 3-(4-(7H-pyrrolo[2,3-c]pyridazin-4-yl)-1H-pyrazol-1-yl)-3-cyclohexylpropane nitrile] | < 5 µM
N#CCC1(n2cc(-c3cnnc4[nH]ccc34)cn2)CCCC1 [Compound 48d, 2-(1-(4-(7H-pyrrolo[2,3-c]pyridazin-4-yl)-1H-pyrazol-1-yl)cyclopentyl)acetonitrile] | < 5 µM
CCS(=O)(=O)N1CC(CC#N)(n2cc(-c3cnnc4[nH]ccc34)cn2)C1 [Compound 49c, 2-(3-(4-(7H-pyrrolo[2,3-c]pyridazin-4-yl)-1H-pyrazol-1-yl)-1-(ethylsulfonyl)azetidin-3-yl)acetonitrile] | < 5 µM
c1ccc(-c2cnnc3[nH]ccc23)cc1 [Compound 50a, 4-phenyl-7H-pyrrolo[2,3-c]pyridazine] | > 10 µM
N#CCC(CC1CCCC1)n1cc(-c2cnnc3[nH]ccc23)cn1 (stereo not drawn) [Compound 51e, 3-(4-(7H-pyrrolo[2,3-c]pyridazin-4-yl)-1H-pyrazol-1-yl)-4-cyclopentylbutane nitrile] | < 5 µM
N#CCC(CC1CCCCC1)n1cc(-c2cnnc3[nH]ccc23)cn1 (stereo not drawn) [Compound 52e, 3-(4-(7H-pyrrolo[2,3-c]pyridazin-4-yl)-1H-pyrazol-1-yl)-4-cyclohexylbutane nitrile] | < 5 µM
N#CCC(C1CC1)n1cc(-c2cnnc3[nH]ccc23)cn1 (stereo not drawn) [Compound 53d, 3-(4-(7H-pyrrolo[2,3-c]pyridazin-4-yl)-1H-pyrazol-1-yl)-3-cyclopropylpropane nitrile] | < 5 µM
N#CCC(C1CCC1)n1cc(-c2cnnc3[nH]ccc23)cn1 (stereo not drawn) [Compound 54e, 3-(4-(7H-pyrrolo[2,3-c]pyridazin-4-yl)-1H-pyrazol-1-yl)-3-cyclobutylpropane nitrile] | < 5 µM
N#CCC1(n2cc(-c3cnnc4[nH]ccc34)cn2)CCC1 [Compound 55d, 2-(1-(4-(7H-pyrrolo[2,3-c]pyridazin-4-yl)-1H-pyrazol-1-yl)cyclobutyl)acetonitrile] | < 5 µM
N#CCC1(n2cc(-c3cnnc4[nH]ccc34)cn2)CCCCC1 [Compound 56d, 2-(1-(4-(7H-pyrrolo[2,3-c]pyridazin-4-yl)-1H-pyrazol-1-yl)cyclohexyl)acetonitrile] | < 5 µM
N#CCC(CC1CC1)n1cc(-c2cnnc3[nH]ccc23)cn1 (stereo not drawn) [Compound 57e, 3-(4-(7H-pyrrolo[2,3-c]pyridazin-4-yl)-1H-pyrazol-1-yl)-4-cyclopropylbutane nitrile] | < 5 µM
N#CC[C@H](C1CCCCC1)n1cc(-c2cnnc3[nH]ccc23)cn1 [Compound 58d, (R)-3-(4-(7H-pyrrolo[2,3-c]pyridazin-4-yl)-1H-pyrazol-1-yl)-3-cyclohexylpropanenitrile] | < 5 µM
N#CC[C@H](CC1CCCC1)n1cc(-c2cnnc3[nH]ccc23)cn1 [Compound 59d, (S)-3-(4-(7H-pyrrolo[2,3-c]pyridazin-4-yl)-1H-pyrazol-1-yl)-4-cyclopentylbutanenitrile] | < 5 µM
N#CC[C@]1(n2cc(-c3cnnc4[nH]ccc34)cn2)C[C@@H](C#N)C1 [Compound 60f, (Z)-3-(4-(7H-pyrrolo[2,3-c]pyridazin-4-yl)-1H-pyrazol-1-yl)-3-(cyanomethyl)cyclobutanecarbonitrile] | < 5 µM
N#CC[C@]1(n2cc(-c3cnnc4[nH]ccc34)cn2)C[C@H](C#N)C1 [Compound 60g, (E)-3-(4-(7H-pyrrolo[2,3-c]pyridazin-4-yl)-1H-pyrazol-1-yl)-3-(cyanomethyl)cyclobutanecarbonitrile] | < 5 µM
N#CCC[C@H](C1CCCC1)n1cc(-c2cnnc3[nH]ccc23)cn1 [Compound 62b, (R)-4-(4-(7H-pyrrolo[2,3-c]pyridazin-4-yl)-1H-pyrazol-1-yl)-4-cyclopentyl butanenitrile] | < 5 µM
N#CC[C@H](c1ccccc1)n1cc(-c2cnnc3[nH]ccc23)cn1 [Compound 67d, (R)-3-(4-(7H-pyrrolo[2,3-c]pyridazin-4-yl)-1H-pyrazol-1-yl)-3-phenylpropane nitrile] | < 5 µM
N#CC[C@H](c1cccc(O)c1)n1cc(-c2cnnc3[nH]ccc23)cn1 [Compound 68f, (R)-3-(4-(7H-pyrrolo[2,3-c]pyridazin-4-yl)-1H-pyrazol-1-yl)-3-(3-hydroxyphenyl)propanenitrile] | < 5 µM
NC(=O)c1c[nH]c2nnnc(O)c12 [Compound 70c, 4-hydroxy-7H-pyrrolo[2,3-d][1,2,3]triazine-5-carboxamide] | > 10 µM
